According to article PMC12106329, “Chronic alcohol intake disrupts cytochrome P450 enzyme activity in alcoholic fatty liver disease: insights into metabolic alterations and therapeutic targets” (Frontiers in Chemistry, 2025):
Values joined by “and” are separate entries in the source; they are usually repeats but may differ in a detail not shown here. Equal entries are not always repeated. Where two headings read alike, the source gives them in different places.

Experiments:
[1] = system: CYP2D6 mRNA; conditions: AM group, oral ethanol 12 weeks; compared to NC and SC groups
Method: (§1) Sixty healthy male Sprague-Dawley rats (SD-2024-RAT-045, Beijing Vital River Laboratory Animal Technology Co., Ltd., Beijing, China) weighing 200–250 g were selected. The animals were housed under a 12-h light/dark cycle at a constant laboratory temperature of 22°C ± 2°C and relative humidity of 50% ± 10%, with access to ample food and water. Sixty rats were randomly assigned to four groups (fifteen rats per group): the normal control group (NC group), the sucrose solution group (SC group), the ethanol intake group (AM group), and the ethanol intake group with simultaneous overexpression of CYP2C11 and CYP2B6 (AM + oe-CYP2C11&CYP2B6 group). The NC group received an equal volume of normal saline daily via oral gavage. The SC group was given an 18% sucrose solution (w/v) and an equal volume of normal saline instead of ethanol. The AM group started with a 5% ethanol concentration, increasing by 5% weekly to 40% while maintaining a constant 18% sucrose concentration (v/v). The plasmid vector for gene overexpression, pCMV6-AC-GFP (LM-2069, LMAI Bio, Shanghai, China), was used to construct CYP2C11 and CYP2B6 plasmids, which were developed by Sangon Biotech (Shanghai, China). After constructing the AM rat model, overexpression plasmids were transfected into lentiviruses via tail vein injection ([Liu et al., 2020]). The lentivirus injections (5 × 10^7 IU/rat) were administered twice, with a minimum interval of 2 days between injections, starting on day 7 after the initiation of sucrose treatment ([Ma et al., 2020]).
(§2) The daily ethanol and sucrose feeding volumes were weight-adjusted for the rats, approximately 20 mL per kilogram of body weight, and continued for 12 weeks. Weekly monitoring of rat weight, observation and recording of appetite, general health status including activity level, fur condition, and behavioral changes were documented. Daily feeding amounts were meticulously recorded to accurately adjust ethanol and sucrose solution volumes. After 12 weeks, the rats were euthanized by cervical dislocation following unconsciousness induced by carbon dioxide (CO₂) inhalation. Liver tissues were dissected and stored at −80°C for subsequent histological and molecular biology analyses. Blood samples were collected, and serum was separated by centrifugation (3,000 rpm, 4°C, 15 min) and stored at −80°C for future use.
(§3) Total RNA was extracted from rat liver tissue using TRIzol reagent (15596026, Invitrogen, United States). cDNA was synthesized using the cDNA synthesis kit (RR036A, Takara, Japan). Specific gene expression was detected by combining the PCR master mix (206143, Qiagen, United States) with the Pikoreal 96 real-time PCR system (QPCR-96X, Thermo Scientific, United States). Quantitative PCR analysis was performed for CYP450 enzyme-related genes with the endogenous gene β-actin as a reference, and the relative mRNA expression levels were quantified by calculating the 2^−ΔΔCt values. All experiments were repeated three times.

[2] = system: CYP2E1 mRNA; conditions: AM group, oral ethanol 12 weeks; compared to NC and SC groups
Method: as §1, §2, §3

[3] = system: CYP1A2 mRNA; conditions: AM group, oral ethanol 12 weeks; compared to NC and SC groups
Method: as §1, §2, §3

[4] = system: CYP2B6 mRNA; conditions: AM group, oral ethanol 12 weeks; compared to NC and SC groups
Method: as §1, §2, §3

[5] = system: CYP2C11 mRNA; conditions: AM group, oral ethanol 12 weeks; compared to NC and SC groups
Method: as §1, §2, §3

[6] = system: CYP3A1 mRNA; conditions: AM group, oral ethanol 12 weeks; compared to NC and SC groups
Method: as §1, §2, §3

[7] = system: rat liver; conditions: AM group: oral ethanol 5% rising 5% weekly to 40% in 18% sucrose, about 20 mL/kg daily, 12 weeks; vs NC and SC groups
Method: as §1, with “The plasmid vector for gene overexpression, pCMV6-AC-GFP (LM-2069, LMAI Bio, Shanghai, China), was used to construct CYP2C11 and CYP2B6 plasmids, which were developed by Sangon Biotech (Shanghai, China). After constructing the AM rat model, overexpression plasmids were transfected into lentiviruses via tail vein injection ([Liu et al., 2020]). The lentivirus injections (5 × 10^7 IU/rat) were administered twice, with a minimum interval of 2 days between injections, starting on day 7 after the initiation of sucrose treatment ([Ma et al., 2020]).” left out
The daily ethanol and sucrose feeding volumes were weight-adjusted for the rats, approximately 20 mL per kilogram of body weight, and continued for 12 weeks. […] Daily feeding amounts were meticulously recorded to accurately adjust ethanol and sucrose solution volumes. […]

[8] = AM group, oral ethanol 12 weeks; vs NC and SC groups
Method: as §1, §2
Serum-related indicators were measured using commercial assay kits (BioSino Biotechnology and Science Inc., Beijing, China) following the manufacturer’s protocols. Specifically, serum samples, substrates, and buffer solutions were prepared according to the kit instructions. The reaction mixture was incubated at 37°C for 20 min, and absorbance was measured at 340 nm to record changes. Concentrations were calculated based on a standard curve ([Li et al., 2018]).

[9] = system: CYP2E1; conditions: AM group, oral ethanol 12 weeks; compared to NC and SC groups
Method: as §1, §2
(§4) Rat liver microsomes were isolated using differential centrifugation. Each sample was mixed with 50 mM Tris-HCl buffer, homogenized, and then centrifuged at 10,000 × g for 30 min. The supernatant was centrifuged at 100,000 × g for 1 h using a high-speed centrifuge (Himac CP100WX, Hitachi, Japan).
(§5) The activities of CYP1A2, CYP2B6, CYP2C19, CYP2C11, CYP2E1, CYP2D6, and CYP3A1 were quantitatively determined using specific labeled substrates and an NADPH generation system containing 100 mM potassium phosphate buffer, 1 mM NADP (N1630, Sigma, United States), 10 mmol/L G-6-P (G7877, Sigma, United States), 0.1 U/mL G-6-PDH (G8529, Sigma, United States), and 5 mM MgCl2. The NADPH generation system was added to microsomes (total protein concentration of 1 mg/mL) with a total volume of 190 μL. Each reaction system was supplemented with 10 μL of substrate.

[10] = system: CYP1A2; conditions: AM group, oral ethanol 12 weeks; compared to NC and SC groups
Method: as §1, §2, §4, §5

[11] = system: CYP2B6; conditions: AM group, oral ethanol 12 weeks
Method: as §1, §2, §4, §5

[12] = system: CYP2C11; conditions: AM group, oral ethanol 12 weeks
Method: as §1, §2, §4, §5

[13] = system: CYP3A1; conditions: AM group, oral ethanol 12 weeks; compared to NC and SC groups
Method: as §1, §2, §4, §5

[14] = system: CYP2D6; conditions: AM group, oral ethanol 12 weeks; compared to NC and SC groups
Method: as §1, §2, §4, §5

[15] = system: ROS; conditions: AM group, oral ethanol 12 weeks; vs NC and SC groups
Method: Reactive oxygen species (ROS) levels were detected using the fluorescent dye 2′,7′-dichlorodihydrofluorescein diacetate (DCF) (HY-D0940, Abcam, United Kingdom). […] Endothelial cells (2 × 10^4 cells) were seeded on coverslips in six-well plates and cultured overnight. The cells were treated with H2O2 (200 μM) the next day for 24 h. After treatment, the coverslips were washed with ice-cold Hank’s Balanced Salt Solution (HBSS) (H8264, Sigma Aldrich, Shanghai, China) and incubated with 100 μM DCFDA at 37°C for 30 min. After washing, the coverslips were mounted onto slides and imaged using a multiphoton confocal microscope (A1R, Nikon, United States) with a ×100 objective. Images were analyzed using Nikon Imaging Software NIS-Element.

[16] = system: CYP2E1; conditions: AM group, oral ethanol 12 weeks
Method: as §1, §2
(§6) Liver samples were lysed using RIPA lysis buffer (P0013B, Beyotime, China). The total protein concentration was evaluated using the BCA protein assay kit (AR0146, Doctor’s Scientific Inc., China). SDS-PAGE was employed to separate total proteins, followed by protein transfer onto pre-wetted PVDF membranes with methanol (IPVH00010, Millipore Corp, United States). Non-specific protein blocking was carried out at room temperature for 3 h using TBST solution (BL315B, Boist, China) containing 5% milk. The target proteins were probed with primary antibodies overnight on […], followed by three washes with TBST/Tween 20 (0.075%) for 15 min each and subsequent incubation with labeled secondary antibodies for 1 h before washing. Protein visualization was performed using the Millipore Immobilon Western Chemiluminescent HRP substrate. The primary antibodies used in the experiments were polyclonal rabbit anti-human CYP450CYP1A2, 2B6, 2C11, 2C19, 2E1, 2D6, 3A1 (bs-20720R, Bioss, China) at a 1:300 dilution. The secondary antibodies, goat anti-mouse or anti-rabbit horseradish peroxidase conjugates, were diluted at 1:10,000 in TBST containing 5% milk. β-actin served as the loading control. The experiments were repeated three times.

[17] = system: CYP1A2; conditions: AM group, oral ethanol 12 weeks
Method: as §1, §2, §6

[18] = system: P-gp; conditions: AM group, oral ethanol 12 weeks
Method: as §1, §2, §6

[19] = system: CYP2C19; conditions: AM group, oral ethanol 12 weeks
Method: as §1, §2, §6

[20] = system: CYP2B6; conditions: AM group, oral ethanol 12 weeks; remark: listed apart in the source
Method: as §1, §2, §6

[21] = system: CYP2C11; conditions: AM group, oral ethanol 12 weeks; remark: listed apart in the source
Method: as §1, §2, §6

[22] = system: CYP3A1; conditions: AM group, oral ethanol 12 weeks; compared to NC and SC groups; remark: listed apart in the source
Method: as §1, §2, §6

[23] = system: CYP2D6; conditions: AM group, oral ethanol 12 weeks
Method: as §1, §2, §6

[24] = system: ALDH2; conditions: AM group, oral ethanol 12 weeks
Method: as §1, §2, §6

[25] = for AUC0-∞ / Cmax / T1/2 / T1/2 el / Tmax / MRT / AUC0-L∞: oral, serum, final dosing after 12 weeks, mean; for AUC0-L∞: time zero to last measurable concentration
Method: Rats were administered orally with the same doses of normal saline and ethanol in the NC, SC, and AM groups, following the same method. After 12 weeks, blood samples were collected from the rats at specified time points (0.5, 1, 2, 4, 6, 8, and 12 h post-dosing) during the final dosing. The blood samples were centrifuged to separate serum and then stored at −80°C for further use.
Utilizing liquid chromatography-mass spectrometry (LC-MS) technology, the concentrations of ethanol and its metabolites in serum samples were analyzed. Analyze the pharmacokinetic parameters of the drug, such as the maximum plasma concentration (Cmax), the mean residence time (MRT) of ethanol in the body, and the bioavailability of ethanol. Data processing was conducted using specialized software XCMS, involving peak identification, integration, and normalization. Multivariate statistical analyses were performed on metabolite data to reveal metabolic differences between groups, such as principal component analysis (PCA) and orthogonal partial least squares discriminant analysis (OPLS-DA). Metabolites were annotated and compared with known databases (HMDB, METLIN) to confirm their identities. Differences in pharmacokinetic parameters among the NC, SC, and AM groups were compared to evaluate the effects of alcohol exposure and CYP450 enzymes, aiming to identify metabolite variances.

[26] = liver, β-actin loading control, single replicates
[27] = SC group (sucrose solution) rats
[28] = rat serum after long-term alcohol exposure

Structure (SMILES): CCO [ethanol]
- CYP2D6 mRNA level in liver [1]: significantly higher
- CYP2E1 mRNA level in liver [2]: significantly higher
- CYP1A2 mRNA level in liver [3]: significantly higher
- CYP2B6 mRNA level in liver [4]: significantly lower
- CYP2C11 mRNA level in liver [5]: significantly lower
- CYP3A1 mRNA level in liver [6]: significantly higher
- liver histology (H&E) [7]: macrovesicular steatosis
- MDA level [8]: significantly increased
- SOD level [8]: significantly decreased
- serum ALT level [8]: significantly increased
- serum AST level [8]: significantly increased
- total cholesterol (TC) level [8]: significantly increased
- triglyceride (TG) level [8]: significantly increased
- CYP2E1 enzyme activity in liver microsomes [9]: significantly increased
- CYP1A2 enzyme activity in liver microsomes [10]: significantly increased
- CYP2B6 enzyme activity in liver microsomes [11]: notable decreases
- CYP2C11 enzyme activity in liver microsomes [12]: notable decreases
- CYP3A1 enzyme activity in liver microsomes [13]: significantly increased
- CYP2D6 enzyme activity in liver microsomes [14]: significantly increased
- intracellular ROS level [15]: significant increase
- CYP2E1 protein expression, change ([16]; compared to NC and SC groups): higher
- CYP2E1 Relative protein expression [16, 26]: 1.88 and 2.01 and 1.78
- CYP1A2 protein expression, change ([17]; compared to NC and SC groups): higher
- CYPIA2 Relative protein expression [17, 26]: 1.50 and 1.52 and 1.65
- P-gp protein expression, change [18]: significant increase
- P-gp Relative protein expression [18, 26]: 1.61 and 1.33 and 1.52
- CYP2C19 protein expression, change ([19]; across all groups): no significant difference
- CYP2C19 Relative protein expression [19, 26]: 1.22 and 1.39 and 1.27
- CYP2B6 protein level, change ([20]; compared to NC and SC groups): significantly lower
- CYP2B6 Relative protein expression [20, 26]: 0.28 and 0.3 and 0.29
- CYP2C11 protein level, change ([21]; compared to NC and SC groups): significantly lower
- CYP2C11 Relative protein expression [21, 26]: 0.76 and 0.74 and 0.78
- CYP3A1 protein expression, change [22]: higher
- CYP2D6 protein expression, change ([23]; compared to NC and SC groups): higher
- CYP2D6 Relative protein expression [23, 26]: 3.37 and 3.45 and 2.83
- ALDH2 protein level, change ([24]; compared with NC and SC groups): increased
- ALDH2 Relative protein expression [24, 26]: 1.34 and 1.48 and 1.49
- AUC0-∞ ([25]; AM group (alcohol intake) rats): 29120 ng·h/mL
- Cmax ([25]; AM group (alcohol intake) rats): 2375 ng/mL
- T1/2 ([25]; AM group (alcohol intake) rats): 2.88 h
- T1/2 el ([25]; AM group (alcohol intake) rats): 17.04 h
- Tmax ([25]; AM group (alcohol intake) rats): 4.76 h
- MRT ([25]; AM group (alcohol intake) rats, p < 0.01 vs NC): 24.48 h
- AUC0-L∞ ([25]; AM group (alcohol intake) rats): 27820 ng·h/mL
- AUC0-∞ ([25]; NC group (normal control) rats): 22400 ng·h/mL
- Cmax ([25]; NC group (normal control) rats): 1900 ng/mL
- MRT ([25]; NC group (normal control) rats): 20.4 h
- T1/2 ([25]; NC group (normal control) rats): 2.4 h
- T1/2 el ([25]; NC group (normal control) rats): 14.2 h
- Tmax ([25]; NC group (normal control) rats): 4.75 h
- AUC0-L∞ ([25]; NC group (normal control) rats): 21400 ng·h/mL
- Tmax, difference among the groups ([25]; NC, SC and AM groups, p > 0.05): no significant difference
- AUC0-∞ [25, 27]: 21300 ng·h/mL
- Cmax [25, 27]: 1890 ng/mL
- MRT [25, 27]: 19.8 h
- T1/2 [25, 27]: 2.35 h
- T1/2 el [25, 27]: 13.5 h
- Tmax [25, 27]: 4.68 h
- AUC0-L∞, AM group vs other groups [25, 28]: significantly increased
- AUC0-∞, AM group vs other groups [25, 28]: significantly increased
- clearance, AM group vs other groups ([25]; rat, after long-term alcohol exposure): lower
